Test [1] relates to APP/PS1 transgenic mice behavior. As to the kind of experiment: Elevated plus maze test in APP/PS1 mice. It is filed as in vivo, mouse. The conditions noted are these: 25 mg/kg/day for 7 months, vs chow only. Here is the method:
APP/PS1 transgenic mice were fed chow alone or containing 25 mg/kg/day of compound 2, for 7 months (3.5˜10.5 months). After administration of 7 months, Elevated plus maze test was performed to evaluate the behavior improvement. Elevated plus maze has two open arms (30 cm×6 cm×0.5 cm) and two closed arms (30 cm×6 cm×15 cm), and also has 6 cm×6 cm of center platform. In Elevated plus maze test, mouse was carefully laid in the center with the head of the mouse toward open arm. The time that the mouse spent in the open arm was recorded for 5 minutes (mean±SEM, n=3-5). *, Significant difference from control (APP/PS1 mouse fed with general chow only), p<0.05 using one-way ANOVA according to Student-Neuman-Keuls' test.

The test system of test [2] is gastric bleeding caused by alcohol. In words: Alcoholic gastritis. It is filed as in vivo, rat. The conditions noted are these: pre-treated 1 hour before alcohol. Here is the method:
FIG. 9 is results showing protecting effect of compound 2 on alcoholic gastritis. A is a picture of normal rat stomach. B is a picture of rat stomach, wherein gastrointestinal bleeding was caused by oral administration of ethanol (4 ml/kg) after 250 g of rat was fasted for 24 hours. C is a picture of rat stomach, wherein rat was pre-treated with compound 21 hour before induction of gastrointestinal bleeding, and stomach was taken out 90 minutes after gastrointestinal bleeding. D is a graph quantifying the degree of stomach injury.
Effect of the 2-hydroxybenzoic acid derivative on alcoholic gastritis was evaluated. 250 g of rat was fasted for 24 hours, and alcohol was orally administered to cause gastric bleeding (B).

The subject of test [3] is AGS cell line (human gastric cancer cells). As to the kind of experiment: Cell-protecting effect in AGS cells (Helicobacter, sulindac, H2O2, ethanol; MTT). The class given is cell-based. The conditions noted are these: most cell death models. How it is done: FIG. 3 is results showing cell-protecting effect of compound 2 on gastric mucous membrane damage induced by Helicobacter. Helicobacter (43504, 5×10^6 cfu/ml) was administered to cultured AGS (human gastric cancer) cell, alone or with sample having indicated concentration. MTT analysis method was used to evaluate the survival rate of gastric mucous membrane cell 24 hours after administration.
FIG. 4 is results showing cell-protecting effect of compound 2 on gastric mucous membrane damage induced by sulindac, a NSAID. 100 uM of sulindac was administered to cultured AGS cell, alone or with sample having indicated concentration. MTT analysis method was used to evaluate the survival rate of gastric mucous membrane cell 16 hours after administration.
FIG. 5 is results showing cell-protecting effect of compound 2 on gastric mucous membrane damage induced by H2O2, oxidative stress. Cultured AGS cell was treated with 100 uM of H2O2 for 8 hours, alone or with sample having indicated concentration, and was washed with culture medium. MTT analysis method was used to evaluate the survival rate of gastric mucous membrane cell 24 hours later. […]
Cell-protecting effect of the 2-hydroxybenzoic acid derivative of the present invention was evaluated. […] After than, the absorbance was analyzed by ELISA reader at 540 nm, and the survival rate of gastric mucous membranes cell was calculated.

Test [4] has as its system IL-6 production in BV2 cell line. As to the kind of experiment: Suppressing effect on production of cytokine (ELISA), IL-6. The conditions noted are these: Mus musculus, BV-2, level in medium, LPS + 100 uM of sample, 24 hours. It is filed as cell-based. How it is done: (§1) Effects of the 2-hydroxybenzoic acid derivatives on production of cytokine in BV2 cell line were evaluated. 24-well plate was inoculated with 1×10^6 cells of BV2 cell line, and treated with both LPS, inflammation-inducing material, and 100 uM of sample (the 2-hydroxybenzoic acid derivative or comparative drug), together. After 24 hours of incubation, culture medium was collected. The levels of cytokines, TNF-α and IL-6, in the medium were evaluated by ELISA method.
(In an ELISA, binding on a coated surface is turned into a signal by an enzyme label.)

In test [5] the test system is TNF-alpha in exudation of air pouch. As to the kind of experiment: Zymosan air pouch inflammation model, TNF-alpha (ELISA). The conditions noted are these: over 30 mg/kg, once oral 1 hour before zymosan, 4 hours later. The class given is in vivo. Here is the method:
FIG. 12 is results showing efficacy of compound 2 through the levels of TNF-alpha induced by zymosan, one of arthritis animal models. 1% zymosan was administered with air pouch, and compound 2 was once orally administered according to indicated dose 1 hour before administration of zymosan. The level of TNF-alpha in an exudation of air pouch was evaluated by ELISA method 4 hours later.
(§2) Anti-inflammation effect of compound 2 in arthritis model was evaluated with zymosan. 0.5 ml of 1% zymosan was administered with air pouch, and 3-300 mg/kg of compound 2 was once orally administered 1 hour before administration of zymosan. Edema, a main symptom of arthritis, and the level of cytokine were observed 4 hours later.

The test system of test [6] is TNF-α and IL-1β mRNA. As to the kind of experiment: Cytokine mRNA expression in G93A mouse (RT-PCR). It is filed as in vivo. The conditions noted are these: 5 mg/kg/day in chow, 16 week-old, lumbar segments. How it is done:
FIG. 30 is results showing the levels of mRNA of inflammatory cytokines (TNF-α and IL-1β), markers of inflammation, in G93A mouse. RT-PCR (Reverse Transcription-Polymerase Chain Reaction) was used.
Lumbar segments of 16 week-old G93A mice fed with general chow only, and 16 week-old G93A mice fed with chow containing 5 mg/kg/day of compound 2 were extracted and their RNA were separated. The mRNA expression degrees of TNF-α and IL-1β, inflammatory cytokines, were evaluated through RT-PCT.

Test [7] has as its system TNF-α production in BV2 cell line. In words: Suppressing effect on production of cytokine (ELISA), TNF-α. It is filed as cell-based. The conditions noted are these: Mus musculus, BV-2, level in medium, LPS + 100 uM of sample, 24 hours. Here is the method:
as §1

Test [8] deals with brain-blood vessel barrier. As to the kind of experiment: Brain-blood vessel barrier protection in APP/PS1 mice (Evans blue). The conditions noted are these: chow from 2 to 5 month-old; compound 2 25 mg/kg/day, ibuprofen 62.5 mg/kg/day. The class given is in vivo, mouse. Here is the method: Damage of brain blood vessel is well known in Alzheimer's disease. […] of 2% Evans blue dye was administered into blood vessel of 5 month-old APP/PS1 dementia mouse.

Test [9] concerns IL-1alpha in exudation of air pouch. In words: Zymosan air pouch inflammation model, IL-1alpha (ELISA). It is filed as in vivo. The conditions noted are these: 3-300 mg/kg once oral 1 hour before zymosan, 4 hours later. How it is done: FIG. 13 is graphs showing how much compound 2 decreases the level of IL-1alpha induced by zymosan, one of arthritis animal models. 1% zymosan was administered with air pouch, and compound 2 was once orally administered according to indicated dose 1 hour before administration of zymosan. The level of IL-1alpha in an exudation of air pouch was evaluated by ELISA method 4 hours later.
as §2

As usually defined, the inhibition is the share of the control response that was lost under treatment.

Take `O=C(O)c1cc(NCCc2ccc(C(F)(F)F)cc2)ccc1O` [compound 2, 2-hydroxy-5-[2-(4-trifluoromethyl-phenyl)-ethylamino]-benzoic acid]: in test [1], the “time spent in the open arm” value was “decreased the time for mouse to stay in the open arm”. For the same molecule, the gastric bleeding entry in test [2] was “significantly reduced gastric bleeding”. Moreover, the cell-protecting effect result in test [3] (1 uM and 10 uM) is given as “more than 50%”; in test [3] (100 uM) it was “more than 70%”. The inhibition at 100 µM in test [4] was found to be 70.3%; in [7], 62.3%. Moreover, the “level of TNF-alpha” value in test [5] is on record as “decreased the level of TNF-alpha more than control”. The “mRNA expression of TNF-α and IL-1β” value in [6] was “effectively reduced inflammatory cytokines”. For the same molecule, the “protecting effect on brain-blood vessel barrier” value in test [8] is recorded as “protecting effects on brain-blood vessel barrier were shown”. Moreover, the “level of IL-1alpha” value in [9] was “decreased in a dose-dependent manner”.

The values above are taken from US8598383B2, “Pharmaceutical composition for treating or preventing degenerative and inflammatory diseases” (Neurotech Pharmaceuticals Co., Ltd., priority 2006, dated 2013).
